Laboratory results published in ChEMBL document CHEMBL3734721 (J Med Chem, 2015).
Values after ≈ are worked out from the molar mass of the structure shown.

How the values were obtained:
[1] = Chemical stability of compound in DMSO assessed as compound remaining at 10 mg/ml after 2 days at room temperature; type: physicochemical; conditions: read-out: Stability
[2] = Chemical stability of compound in DMSO assessed as compound remaining at 10 mg/ml after 24 days at room temperature under air; type: physicochemical; conditions: read-out: Stability
[3] = Chemical stability of compound in 0.1N HCL assessed as compound remaining at 10 mg/ml after 1 day; type: physicochemical; conditions: read-out: Stability
[4] = Chemical stability of compound in 0.1N HCL and 0.5% H2O2 assessed as compound remaining at 10 mg/ml after 1 day; type: physicochemical; conditions: read-out: Stability
[5] = Chemical stability of compound in 0.1N NaOH assessed as compound remaining at 10 mg/ml after 1 day; type: physicochemical; conditions: read-out: Stability
[6] = Chemical stability of compound in 0.1N NaOH assessed as compound remaining at 10 mg/ml after 2 days; type: physicochemical; conditions: read-out: Stability
[7] = Chemical stability of compound in buffer at pH 7.4 assessed as compound remaining at 10 mg/ml after 1 day; type: physicochemical; conditions: read-out: Stability
[8] = Chemical stability of compound in buffer at pH 7.4 assessed as compound remaining at 10 mg/ml after 2 days; type: physicochemical; conditions: read-out: Stability
[9] = Chemical stability of compound in DMSO assessed as compound remaining at 10 mg/ml after 1 day at room temperature; type: physicochemical; conditions: read-out: Stability
[10] = target: T1, 5-hydroxytryptamine receptor 6 (Homo sapiens, UniProt P50406); assay: Antagonist activity at human 5-HT6 receptor expressed in 1321N1 cells assessed as seretonin-induced cAMP by HTRF assay; type: functional, cell-based
T1 sequence (P50406 whole entry): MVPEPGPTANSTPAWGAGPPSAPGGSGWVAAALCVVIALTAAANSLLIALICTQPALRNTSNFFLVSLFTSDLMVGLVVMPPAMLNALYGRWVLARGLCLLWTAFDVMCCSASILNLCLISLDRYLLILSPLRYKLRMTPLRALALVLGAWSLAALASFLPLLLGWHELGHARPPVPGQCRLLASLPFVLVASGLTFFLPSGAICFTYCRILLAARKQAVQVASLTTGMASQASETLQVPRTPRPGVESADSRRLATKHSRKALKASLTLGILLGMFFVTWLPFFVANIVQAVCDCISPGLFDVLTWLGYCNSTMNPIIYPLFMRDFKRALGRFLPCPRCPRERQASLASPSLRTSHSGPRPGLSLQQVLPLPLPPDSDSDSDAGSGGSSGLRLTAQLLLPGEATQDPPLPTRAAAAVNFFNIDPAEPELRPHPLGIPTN

[11] = target: T2, 5-hydroxytryptamine receptor 7 (Homo sapiens, UniProt P34969); assay: Antagonist activity at human wild-type 5-HT7 receptor expressed in HEK cells assessed as seretonin-induced cAMP by HTRF assay; type: functional, cell-based, HEK293
T2 sequence (P34969 whole entry): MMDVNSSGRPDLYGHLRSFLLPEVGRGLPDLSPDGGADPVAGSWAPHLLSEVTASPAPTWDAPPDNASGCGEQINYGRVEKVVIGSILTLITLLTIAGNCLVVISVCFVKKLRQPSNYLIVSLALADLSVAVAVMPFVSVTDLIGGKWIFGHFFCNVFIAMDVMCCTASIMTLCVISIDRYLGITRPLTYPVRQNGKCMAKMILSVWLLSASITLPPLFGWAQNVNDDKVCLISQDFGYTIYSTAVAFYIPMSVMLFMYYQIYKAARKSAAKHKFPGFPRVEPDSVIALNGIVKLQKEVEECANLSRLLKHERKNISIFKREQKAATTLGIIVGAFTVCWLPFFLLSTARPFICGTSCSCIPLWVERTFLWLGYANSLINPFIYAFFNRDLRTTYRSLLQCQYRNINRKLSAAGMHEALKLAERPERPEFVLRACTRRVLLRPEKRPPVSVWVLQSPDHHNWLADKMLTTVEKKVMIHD

[12] = target: T1, 5-hydroxytryptamine receptor 6; assay: Agonist activity at human 5-HT6 receptor expressed in 1321N1 cells assessed as cAMP by HTRF assay; type: functional, cell-based
[13] = target: T2, 5-hydroxytryptamine receptor 7; assay: Agonist activity at human wild-type 5-HT7 receptor expressed in HEK cells assessed as cAMP by HTRF assay; type: functional, cell-based, HEK293
[14] = Kinetic solubility of compound in phosphate buffer at pH 7.4 for 4 hrs by UPLC/UV analysis; type: physicochemical; conditions: read-out: Kinetic_solubility
Cytochrome P450 1A2 = target: T3, Cytochrome P450 1A2 (Homo sapiens, UniProt P05177); assay: Inhibition of human CYP1A2 by LC-MS analysis; type: ADME
T3 sequence (P05177 whole entry): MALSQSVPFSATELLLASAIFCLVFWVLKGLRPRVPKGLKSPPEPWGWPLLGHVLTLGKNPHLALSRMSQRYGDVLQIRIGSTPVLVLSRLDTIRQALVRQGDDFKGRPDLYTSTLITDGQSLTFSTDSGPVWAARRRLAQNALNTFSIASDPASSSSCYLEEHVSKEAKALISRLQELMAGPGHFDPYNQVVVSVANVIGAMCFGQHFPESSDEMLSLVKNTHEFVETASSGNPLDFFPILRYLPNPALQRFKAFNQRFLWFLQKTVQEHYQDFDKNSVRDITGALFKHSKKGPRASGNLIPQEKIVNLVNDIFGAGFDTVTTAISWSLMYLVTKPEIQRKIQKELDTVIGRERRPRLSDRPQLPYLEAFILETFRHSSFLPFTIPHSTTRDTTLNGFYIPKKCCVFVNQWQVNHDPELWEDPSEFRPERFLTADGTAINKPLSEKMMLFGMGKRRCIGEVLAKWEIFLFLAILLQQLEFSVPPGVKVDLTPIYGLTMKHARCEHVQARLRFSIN

Cytochrome P450 2C19 = Cytochrome P450 2C19 (Homo sapiens, UniProt P33261); assay: Inhibition of human CYP2C19 by LC-MS analysis; type: ADME
Sequence of Cytochrome P450 2C19 (P33261 whole entry): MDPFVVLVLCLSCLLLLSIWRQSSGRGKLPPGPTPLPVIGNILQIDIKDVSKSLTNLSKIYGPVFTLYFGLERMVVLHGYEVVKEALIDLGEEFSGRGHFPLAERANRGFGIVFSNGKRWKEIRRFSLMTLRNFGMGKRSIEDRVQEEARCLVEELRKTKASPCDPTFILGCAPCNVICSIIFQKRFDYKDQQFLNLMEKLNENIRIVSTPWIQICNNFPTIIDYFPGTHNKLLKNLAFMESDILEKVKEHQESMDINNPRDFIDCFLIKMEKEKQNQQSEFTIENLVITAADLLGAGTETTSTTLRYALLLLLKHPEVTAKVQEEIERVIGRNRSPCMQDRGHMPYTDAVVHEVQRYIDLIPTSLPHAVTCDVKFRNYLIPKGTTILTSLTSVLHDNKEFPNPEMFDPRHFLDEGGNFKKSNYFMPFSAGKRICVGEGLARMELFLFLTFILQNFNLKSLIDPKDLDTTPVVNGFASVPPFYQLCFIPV

Cytochrome P450 2C8 = target: T4, Cytochrome P450 2C8 (Homo sapiens, UniProt P10632); assay: Inhibition of human CYP2C8 by LC-MS analysis; type: ADME
T4 sequence (P10632 whole entry): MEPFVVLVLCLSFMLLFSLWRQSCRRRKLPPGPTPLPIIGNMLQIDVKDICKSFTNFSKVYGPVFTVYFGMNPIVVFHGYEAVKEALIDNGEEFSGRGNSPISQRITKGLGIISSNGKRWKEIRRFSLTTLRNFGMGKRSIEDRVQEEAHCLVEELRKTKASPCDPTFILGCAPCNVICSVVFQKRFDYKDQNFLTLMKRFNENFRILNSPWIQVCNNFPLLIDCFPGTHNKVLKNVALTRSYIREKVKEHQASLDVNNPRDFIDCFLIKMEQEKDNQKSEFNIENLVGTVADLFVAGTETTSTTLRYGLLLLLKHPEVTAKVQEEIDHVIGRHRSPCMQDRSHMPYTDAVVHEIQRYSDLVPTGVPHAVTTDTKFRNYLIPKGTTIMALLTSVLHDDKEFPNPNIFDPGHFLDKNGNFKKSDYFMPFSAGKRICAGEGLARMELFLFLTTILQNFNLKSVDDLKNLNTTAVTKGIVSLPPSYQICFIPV

Cytochrome P450 2C9 = Cytochrome P450 2C9 (Homo sapiens, UniProt P11712); assay: Inhibition of human CYP2C9 by LC-MS analysis; type: ADME
Sequence of Cytochrome P450 2C9 (P11712 whole entry): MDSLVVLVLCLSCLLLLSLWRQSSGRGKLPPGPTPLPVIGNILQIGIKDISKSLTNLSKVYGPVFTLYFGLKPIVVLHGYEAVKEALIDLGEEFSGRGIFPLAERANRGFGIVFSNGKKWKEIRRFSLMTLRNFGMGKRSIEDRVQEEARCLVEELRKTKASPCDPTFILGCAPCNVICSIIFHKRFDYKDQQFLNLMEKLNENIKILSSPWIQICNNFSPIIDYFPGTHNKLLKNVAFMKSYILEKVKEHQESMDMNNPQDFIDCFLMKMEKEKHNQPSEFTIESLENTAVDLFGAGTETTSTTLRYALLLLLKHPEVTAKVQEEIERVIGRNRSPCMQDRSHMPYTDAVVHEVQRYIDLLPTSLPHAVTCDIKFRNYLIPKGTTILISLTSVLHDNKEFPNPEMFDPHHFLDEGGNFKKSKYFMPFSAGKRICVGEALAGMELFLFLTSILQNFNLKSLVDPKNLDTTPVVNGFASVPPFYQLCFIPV

human MDR1 = assay: Permeability across apical to basolateral in MDCK expressing human MDR1 at 5 uM by LC-MS/MS method; type: ADME, cell-based, Canis lupus familiaris; conditions: dog, read-out: permeability
[15] = Fraction unbound in rat brain at 5 uM after 5 hrs by LC-MS/MS analysis; type: ADME, tissue-based
[16] = Fraction unbound in human plasma at 5 uM after 4.5 hrs by LC-MS/MS analysis; type: ADME, cell-free
[17] = Fraction unbound in mouse plasma at 5 uM after 4.5 hrs by LC-MS/MS analysis; type: ADME, cell-free
[18] = Fraction unbound in rat plasma at 5 uM after 4.5 hrs by LC-MS/MS analysis; type: ADME, cell-free
HepG2 = assay: Cytotoxicity against human HepG2 cells; type: cell-based
[19] = Cmax in Swiss mouse brain at 5 mg/kg, sc; type: ADME, organism-based; design: dose 5 mg/kg, route subcutaneous
[20] = Ratio of drug level in brain to plasma in Swiss mouse at 5 mg/kg, sc; type: ADME, organism-based; conditions: read-out: BPR

remaining at 48 h, 10 mg/ml [1]: 100%
remaining at 576 h, 10 mg/ml [2]: 100%
remaining at 24 h, 10 mg/ml [3]: 100%
remaining at 24 h, 10 mg/ml [4]: 100%
remaining at 24 h, 10 mg/ml [5]: 100%
remaining at 48 h, 10 mg/ml [6]: 100%
remaining at 24 h, 10 mg/ml [7]: 100%
remaining at 48 h, 10 mg/ml [8]: 100%
remaining at 24 h, 10 mg/ml [9]: 100%
IC50 [10]: > 5.01 µM
IC50 [11]: > 5.01 µM
EC50 [12]: > 5.01 µM
EC50 [13]: > 5.01 µM
solubility kinetic at 4 h [14]: 764 µM (≈ 198 µg/mL)
IC50 (Cytochrome P450 1A2): > 10 µM
IC50 (Cytochrome P450 2C19): > 10 µM
IC50 (Cytochrome P450 2C8): > 10 µM
IC50 (Cytochrome P450 2C9): > 10 µM
Papp A→B at 5 µM (human MDR1): 3.5 ×10⁻⁶ cm/s
fraction unbound at 5 h, 5 µM [15]: 0.028
fraction unbound at 4.5 h, 5 µM [16]: 0.421
fraction unbound at 4.5 h, 5 µM [17]: 0.212
fraction unbound at 4.5 h, 5 µM [18]: 0.239
Cmax [19]: 16 µM
Kp [20]: 23
Structure (SMILES): CC(C)NCC(O)COc1cccc2ccccc12 (stereo unspecified) [PROPRANOLOL]
EC20 (HepG2): > 100 µM
